Laboratory results published in US9204653B2, “5-fluoro pyrimidine derivatives” (DOW AGROSCIENCES LLC, priority 2008, dated 2015).
Like-named read-outs stand apart in the source and are kept apart here.

System: Mycosphaerella graminicola; Anamorph: Septoria tritici; Bayer Code SEPTTR
Assay: Leaf blotch of wheat, foliar fungicide treatment, one day protectant (1DP) or three day curative (3DC)
Type: in vivo, Septoria tritici on wheat plants (variety Yuma)
Details: Zymoseptoria tritici, percent disease control rating
[1] = 24 h, one day protectant (1DP), read-out: SETTTR 1DP 25 ppm
[2] = 24 h, one day protectant (1DP), read-out: SEPTTR 1DP 100 ppm
[3] = 72 h, three day curative (3DC), read-out: SEPTTR 3DC 25 ppm
[4] = 72 h, three day curative (3DC), read-out: SEPTTR 3DC 100 ppm

| SMILES | pest or weed control at 25 ppm [1] [%] | pest or weed control at 100 ppm [2] [%] | pest or weed control at 25 ppm [3] [%] | pest or weed control at 100 ppm [4] [%] |
| --- | --- | --- | --- | --- |
| CN(C)/C=N/c1nc(OC(=O)c2ccccc2F)ncc1F [Compound 58] | 76 to 100 | 76 to 100 | 76 to 100 | 76 to 100 |
| O=C(NCc1ccccc1)Nc1nc(OCc2ccc(F)cc2)ncc1F [Compound 59] | 0 to 25 | 0 to 25 | 0 to 25 | 26 to 50 |
| Nc1nc(OCc2ccc(F)c(C(F)(F)F)c2)ncc1F [Compound 60] | 76 to 100 | 76 to 100 | 76 to 100 | 76 to 100 |
| Cn1ccc(COc2ncc(F)c(NC(=O)NCc3ccccc3F)n2)n1 [Compound 64] | 0 to 25 | 0 to 25 | 0 to 25 | 26 to 50 |
| COc1ccc(/C=N/Nc2nc(OCc3cccc(OC)c3)ncc2F)cc1 [Compound 65] | 26 to 50 | 51 to 75 | 26 to 50 | 51 to 75 |
| CCOc1cccc(COc2ncc(F)c(N)n2)c1 [Compound 66] | 76 to 100 | 76 to 100 | 76 to 100 | 76 to 100 |
| C[C@@H](Oc1ncc(F)c(N)n1)c1ccc(Br)cc1 [Compound 70] | 26 to 50 | 76 to 100 | 26 to 50 | 76 to 100 |
| CCOC(=O)Nc1nc(OCc2ccccc2)ncc1F [Compound 71] | 76 to 100 | 76 to 100 | 76 to 100 | 76 to 100 |
| C/C(=N\Oc1ncc(F)c(N)n1)c1ccc(F)cc1 [Compound 72] | 76 to 100 | 76 to 100 | 76 to 100 | 76 to 100 |
| N#Cc1ccc(COc2ncc(F)c(N)n2)cc1 [Compound 74] | 51 to 75 | 76 to 100 | 0 to 25 | 0 to 25 |
| COc1ccc(COc2ncc(F)c(NC(=S)NCc3ccccc3F)n2)cc1F [Compound 75] | 26 to 50 | 76 to 100 | 76 to 100 | 76 to 100 |
| Cn1c(COc2ncc(F)c(N)n2)cc2sccc21 [Compound 76] | 26 to 50 | 26 to 50 | 26 to 50 | 26 to 50 |
| COc1cccc(COc2ncc(F)c(NN3CCN(C)CC3)n2)c1 [Compound 77] | 0 to 25 | 76 to 100 | 26 to 50 | 76 to 100 |
| Cc1cccc(COc2ncc(F)c(N)n2)n1 [Compound 78] | 76 to 100 | 76 to 100 | 76 to 100 | 76 to 100 |
| Cn1ccc(COc2ncc(F)c(NC(=O)Nc3ccccc3F)n2)n1 [Compound 81] | 0 to 25 | 0 to 25 | 0 to 25 | 0 to 25 |
| CC(Oc1ncc(F)c(N)n1)c1cccc(Oc2ccccc2)n1 (stereo not drawn) [Compound 82] | 26 to 50 | 26 to 50 | 0 to 25 | 26 to 50 |
| CCCC(Oc1ncc(F)c(N)n1)c1ccc(F)cc1 (stereo not drawn) [Compound 83] | 76 to 100 | 76 to 100 | 76 to 100 | 76 to 100 |
| COc1cccc(COc2ncc(F)c(NSc3ccccc3[N+](=O)[O-])n2)c1 [Compound 85] | 26 to 50 | 76 to 100 | 76 to 100 | 76 to 100 |
| COc1ccccc1COc1ncc(F)c(NC(=O)Cc2ccccc2)n1 [Compound 86] | 26 to 50 | 51 to 75 | 0 to 25 | 0 to 25 |
| CC(Oc1ncc(F)c(NCO)n1)c1ccc(F)cc1 (stereo not drawn) [Compound 88] | 26 to 50 | 76 to 100 | 26 to 50 | 76 to 100 |
| CN(C)/C=N/c1nc(OS(=O)(=O)c2cccs2)ncc1F [Compound 89] | 76 to 100 | 76 to 100 | 76 to 100 | 76 to 100 |
| O=[N+]([O-])c1ccccc1SNc1nc(OCc2cc(Cl)cc(Cl)c2)ncc1F [Compound 90] | 76 to 100 | 76 to 100 | 26 to 50 | 51 to 75 |
| Nc1nc(OCc2cc(F)c(F)c(F)c2)ncc1F [Compound 93] | 76 to 100 | 76 to 100 | 76 to 100 | 76 to 100 |

| SMILES | pest or weed control at 25 ppm [1] [%] | pest or weed control at 100 ppm [2] [%] | pest or weed control at 25 ppm [3] [%] | pest or weed control at 100 ppm [4] [%] |
| --- | --- | --- | --- | --- |
| CCC(C)C(=O)Oc1ncc(F)c(/N=C/N(C)C)n1 (stereo not drawn) [Compound 94] | 76 to 100 | 76 to 100 | 76 to 100 | 76 to 100 |
| CC(C)(C)Oc1ccc(COc2ncc(F)c(N)n2)cc1 [Compound 95] | 76 to 100 | 76 to 100 | 76 to 100 | 76 to 100 |
| CNC(=O)/C(=N/OC)c1ccccc1COc1ncc(F)c(N)n1 [Compound 96] | 0 to 25 | 0 to 25 | 0 to 25 | 0 to 25 |
| CCC(/C=N/Nc1nc(OCc2cccc(OC)c2)ncc1F)CC [Compound 97] | 0 to 25 | 51 to 75 | 0 to 25 | 0 to 25 |
| O=C(NCc1ccccc1F)Nc1nc(OCc2cccc(F)c2)ncc1F [Compound 98] | 0 to 25 | 0 to 25 | 0 to 25 | 0 to 25 |
| CCCCCCOc1ncc(F)c(NCO)n1 [Compound 99] | 0 to 25 | 76 to 100 | 0 to 25 | 51 to 75 |
| Nc1nc(SCc2ccc(F)cc2)ncc1F [Compound 100] | 0 to 25 | 0 to 25 | 0 to 25 | 0 to 25 |
| CC(C)(C)OC(=O)Nc1nc(OCc2ccc(F)cc2)ncc1F [Compound 101] | 51 to 75 | 51 to 75 | 0 to 25 | 0 to 25 |
| Cc1ccc(COc2ncc(F)c(N(N)c3ccccc3)n2)cc1 [Compound 102] | 0 to 25 | 0 to 25 | 0 to 25 | 26 to 50 |
| C[C@H](Oc1ncc(F)c(N)n1)c1ccc(Br)cc1 [Compound 103] | 76 to 100 | 76 to 100 | 51 to 75 | 76 to 100 |
| Nc1nc(OCc2nc3ccccc3s2)ncc1F [Compound 104] | 76 to 100 | 76 to 100 | 76 to 100 | 76 to 100 |
| Fc1cnc(OCc2ccccc2)nc1N/N=C/C1CC1 [Compound 105] | 0 to 25 | 0 to 25 | 0 to 25 | 0 to 25 |
| Nc1nc(OCCCC2CCCC2)ncc1F [Compound 106] | 0 to 25 | 0 to 25 | 0 to 25 | 26 to 50 |
| CC(=O)Nc1nc(OCc2cccc(F)c2)ncc1F [Compound 107] | 76 to 100 | 76 to 100 | 76 to 100 | 76 to 100 |
| Cn1ccc(COc2ncc(F)c(/N=C/N3CCOCC3)n2)n1 [Compound 108] | 76 to 100 | 76 to 100 | 76 to 100 | 76 to 100 |
| COc1cccc(COc2ncc(F)c(N(N)C3CCCCC3)n2)c1 [Compound 111] | 0 to 25 | 0 to 25 | 0 to 25 | 0 to 25 |
| CN(C)/C=N/c1nc(OC(=O)OCc2ccccc2)ncc1F [Compound 112] | 76 to 100 | 76 to 100 | 76 to 100 | 76 to 100 |
| COc1ccc(Oc2ncc(F)c(NCO)n2)cc1 [Compound 113] | 51 to 75 | 76 to 100 | 0 to 25 | 26 to 50 |
| CCCNC(=O)Nc1nc(OCc2ccn(C)n2)ncc1F [Compound 114] | 0 to 25 | 0 to 25 | 0 to 25 | 0 to 25 |
| Fc1cnc(OCc2ccccc2)nc1-n1ccnc1 [Compound 115] | 76 to 100 | 76 to 100 | 76 to 100 | 76 to 100 |
| O=C(NCc1ccccc1F)Nc1nc(OCc2cccs2)ncc1F [Compound 116] | 0 to 25 | 0 to 25 | 0 to 25 | 0 to 25 |
| O=[N+]([O-])c1ccccc1SNc1nc(OCc2cccc(F)c2)ncc1F [Compound 117] | 26 to 50 | 51 to 75 | 26 to 50 | 26 to 50 |
